# Tested on: HPAF-II
# Experiment: Cell panel screen (CellTiter-Glo)
# Type: cell-based, human
# Settings: HPAF-II (Pancreas), 20 micromolar, 72 hrs
# How it was run: (§1)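 Compound, diluted from DMSO into culture medium, was added at a final 20 μM; control wells got equal DMSO. After 72 h, luminescent ATP signal was recorded and converted to percent inhibition.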
row,SMILES,Percent Inhibition [%]
1,CC(C)=CCCC1(C)C=Cc2c(O)c3c(c(CC=C(C)C)c2O1)OC12C(=CC4CC1C(C)(C)OC2(CC=C(C)C(=O)O)C4=O)C3=O (mixture of isomers) [GB8],99

# Tested on: HCC1599
# Experiment: Cell panel screen (CellTiter-Glo)
# Type: cell-based, human
# Settings: HCC1599 (Breast), 20 micromolar, 72 hrs
# How it was run: as §1
row,SMILES,Percent Inhibition [%]
1,CC(C)=CCCC1(C)C=Cc2c(O)c3c(c(CC=C(C)C)c2O1)OC12C(=CC4CC1C(C)(C)OC2(CC=C(C)C(=O)O)C4=O)C3=O (mixture of isomers) [GB8],100

# Tested on: NCI-H1623
# Experiment: Cell panel screen (CellTiter-Glo)
# Type: cell-based, human
# Settings: NCI-H1623 (Lung), 20 micromolar, 72 hrs
# How it was run: as §1
row,SMILES,Percent Inhibition [%]
1,CC(C)=CCCC1(C)C=Cc2c(O)c3c(c(CC=C(C)C)c2O1)OC12C(=CC4CC1C(C)(C)OC2(CC=C(C)C(=O)O)C4=O)C3=O (mixture of isomers) [GB8],99

# Tested on: Panc 03.27
# Experiment: Cell panel screen (CellTiter-Glo)
# Type: cell-based, human
# Settings: Panc 03.27 (Pancreas), 20 micromolar, 72 hrs
# How it was run: as §1
row,SMILES,Percent Inhibition [%]
1,CC(C)=CCCC1(C)C=Cc2c(O)c3c(c(CC=C(C)C)c2O1)OC12C(=CC4CC1C(C)(C)OC2(CC=C(C)C(=O)O)C4=O)C3=O (mixture of isomers) [GB8],99

# Tested on: NCI-H524
# Experiment: Cell panel screen (CellTiter-Glo)
# Type: cell-based, human
# Settings: NCI-H524 (Lung), 20 micromolar, 72 hrs
# How it was run: as §1
row,SMILES,Percent Inhibition [%]
1,CC(C)=CCCC1(C)C=Cc2c(O)c3c(c(CC=C(C)C)c2O1)OC12C(=CC4CC1C(C)(C)OC2(CC=C(C)C(=O)O)C4=O)C3=O (mixture of isomers) [GB8],98

# Tested on: NCI-H2347
# Experiment: Cell panel screen (CellTiter-Glo)
# Type: cell-based, human
# Settings: NCI-H2347 (Lung), 20 micromolar, 72 hrs
# How it was run: as §1
row,SMILES,Percent Inhibition [%]
1,CC(C)=CCCC1(C)C=Cc2c(O)c3c(c(CC=C(C)C)c2O1)OC12C(=CC4CC1C(C)(C)OC2(CC=C(C)C(=O)O)C4=O)C3=O (mixture of isomers) [GB8],99

# Tested on: SW13
# Experiment: Cell panel screen (CellTiter-Glo)
# Type: cell-based, human
# Settings: SW13 (Adrenal gland), 20 micromolar, 72 hrs
# How it was run: as §1
row,SMILES,Percent Inhibition [%]
1,CC(C)=CCCC1(C)C=Cc2c(O)c3c(c(CC=C(C)C)c2O1)OC12C(=CC4CC1C(C)(C)OC2(CC=C(C)C(=O)O)C4=O)C3=O (mixture of isomers) [GB8],99

# Tested on: TCCSUP
# Experiment: Cell panel screen (CellTiter-Glo)
# Type: cell-based, human
# Settings: TCCSUP (Urinary bladder), 20 micromolar, 72 hrs
# How it was run: as §1
row,SMILES,Percent Inhibition [%]
1,CC(C)=CCCC1(C)C=Cc2c(O)c3c(c(CC=C(C)C)c2O1)OC12C(=CC4CC1C(C)(C)OC2(CC=C(C)C(=O)O)C4=O)C3=O (mixture of isomers) [GB8],100

# Tested on: HT-1197
# Experiment: Cell panel screen (CellTiter-Glo)
# Type: cell-based, human
# Settings: HT-1197 (Urinary bladder), 20 micromolar, 72 hrs
# How it was run: as §1
row,SMILES,Percent Inhibition [%]
1,CC(C)=CCCC1(C)C=Cc2c(O)c3c(c(CC=C(C)C)c2O1)OC12C(=CC4CC1C(C)(C)OC2(CC=C(C)C(=O)O)C4=O)C3=O (mixture of isomers) [GB8],99

# Tested on: NCI-H2405
# Experiment: Cell panel screen (CellTiter-Glo)
# Type: cell-based, human
# Settings: NCI-H2405 (Lung), 20 micromolar, 72 hrs
# How it was run: as §1
row,SMILES,Percent Inhibition [%]
1,CC(C)=CCCC1(C)C=Cc2c(O)c3c(c(CC=C(C)C)c2O1)OC12C(=CC4CC1C(C)(C)OC2(CC=C(C)C(=O)O)C4=O)C3=O (mixture of isomers) [GB8],99

# Tested on: M059J
# Experiment: Cell panel screen (CellTiter-Glo)
# Type: cell-based, human
# Settings: M059J (Brain), 20 micromolar, 72 hrs
# How it was run: as §1
row,SMILES,Percent Inhibition [%]
1,CC(C)=CCCC1(C)C=Cc2c(O)c3c(c(CC=C(C)C)c2O1)OC12C(=CC4CC1C(C)(C)OC2(CC=C(C)C(=O)O)C4=O)C3=O (mixture of isomers) [GB8],100

# Tested on: HGC-27
# Experiment: Cell panel screen (CellTiter-Glo)
# Type: cell-based, human
# Settings: HGC-27 (Stomach), 20 micromolar, 72 hrs
# How it was run: as §1
row,SMILES,Percent Inhibition [%]
1,CC(C)=CCCC1(C)C=Cc2c(O)c3c(c(CC=C(C)C)c2O1)OC12C(=CC4CC1C(C)(C)OC2(CC=C(C)C(=O)O)C4=O)C3=O (mixture of isomers) [GB8],100

# Tested on: Colo 205
# Experiment: Cell panel screen (CellTiter-Glo)
# Type: cell-based, human
# Settings: Colo 205, 20 micromolar, 72 hrs
# How it was run: as §1
row,SMILES,Percent Inhibition [%]
1,CC(C)=CCCC1(C)C=Cc2c(O)c3c(c(CC=C(C)C)c2O1)OC12C(=CC4CC1C(C)(C)OC2(CC=C(C)C(=O)O)C4=O)C3=O (mixture of isomers) [GB8],99

# Tested on: HCC1569
# Experiment: Cell panel screen (CellTiter-Glo)
# Type: cell-based, human
# Settings: HCC1569 (Breast), 20 micromolar, 72 hrs
# How it was run: as §1
row,SMILES,Percent Inhibition [%]
1,CC(C)=CCCC1(C)C=Cc2c(O)c3c(c(CC=C(C)C)c2O1)OC12C(=CC4CC1C(C)(C)OC2(CC=C(C)C(=O)O)C4=O)C3=O (mixture of isomers) [GB8],100

# Tested on: A704
# Experiment: Cell panel screen (CellTiter-Glo)
# Type: cell-based, human
# Settings: A704 (Kidney), 20 micromolar, 72 hrs
# How it was run: as §1
row,SMILES,Percent Inhibition [%]
1,CC(C)=CCCC1(C)C=Cc2c(O)c3c(c(CC=C(C)C)c2O1)OC12C(=CC4CC1C(C)(C)OC2(CC=C(C)C(=O)O)C4=O)C3=O (mixture of isomers) [GB8],99

# Tested on: CCF-STTG1
# Experiment: Cell panel screen (CellTiter-Glo)
# Type: cell-based, human
# Settings: CCF-STTG1 (Brain), 20 micromolar, 72 hrs
# How it was run: as §1
row,SMILES,Percent Inhibition [%]
1,CC(C)=CCCC1(C)C=Cc2c(O)c3c(c(CC=C(C)C)c2O1)OC12C(=CC4CC1C(C)(C)OC2(CC=C(C)C(=O)O)C4=O)C3=O (mixture of isomers) [GB8],99

# Tested on: NCI-H28
# Experiment: Cell panel screen (CellTiter-Glo)
# Type: cell-based, human
# Settings: NCI-H28 (Lung), 20 micromolar, 72 hrs
# How it was run: as §1
row,SMILES,Percent Inhibition [%]
1,CC(C)=CCCC1(C)C=Cc2c(O)c3c(c(CC=C(C)C)c2O1)OC12C(=CC4CC1C(C)(C)OC2(CC=C(C)C(=O)O)C4=O)C3=O (mixture of isomers) [GB8],99

# Tested on: NCI-H1770
# Experiment: Cell panel screen (CellTiter-Glo)
# Type: cell-based, human
# Settings: NCI-H1770 (Lung), 20 micromolar, 72 hrs
# How it was run: as §1
row,SMILES,Percent Inhibition [%]
1,CC(C)=CCCC1(C)C=Cc2c(O)c3c(c(CC=C(C)C)c2O1)OC12C(=CC4CC1C(C)(C)OC2(CC=C(C)C(=O)O)C4=O)C3=O (mixture of isomers) [GB8],100
